# Laboratory results from patent US20020137929A1, “1 - (3-heterocyclylphenyl) isothiourea, -isourea, -guanidine and -amidine herbicidal agents” (Intellectual Property Department, BASF Aktiengesellschaft, priority 1998, published 2002).
# Assays:
# GALAP (Galium) = test: Preemergence herbicidal evaluation; format: in vivo, Galium aparine; conditions: rated 4-5 weeks after treatment
# Outline: (§1)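 Seeds were planted in potting soil in cups, then sprayed preemergence with the test compound in aqueous acetone at about 0.0156 to 0.500 kg per hectare. Cups were kept under greenhouse conditions and visually rated 4–5 weeks after treatment on a 0–9 scale against an untreated control.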
# [1] = test system: IPOHE (Morningglory, Ivyleaf); test: Postemergence herbicidal evaluation; format: in vivo, Ipomoea hederacea
# Outline: (§2)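 Herbicidal effect was judged by eye on a 0–9 scale covering stand, vigor, deformity, size and chlorosis, compared with controls, four to five weeks after seedlings about two weeks old were sprayed (40 psi, ~0.0156–0.500 kg/ha).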
# [2] = test system: GLXMAW (Soybean, Williams); test: Preemergence herbicidal evaluation; format: in vivo, Glycine max, (L.) Merr. cv Williams; conditions: rated 4-5 weeks after treatment
# Outline: as §1
# ECHCG (Barnyardgrass) = test: Preemergence herbicidal evaluation; format: in vivo, Echinochloa crus-galli; conditions: rated 4-5 weeks after treatment
# Outline: as §1
# MOOVA (Monochoria) = test: Postemergence weed control under flooded paddy conditions; format: in vivo, Monochoria vaginalis; conditions: postemergence weeds
# Outline: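 With weeds 3 to 5 cm tall and rice at the 1.5 to 2.5 leaf stage, containers were flooded and water held 1.5 to 3 cm above soil. Compounds in 50/50 v/v aqueous/acetone went into the flood water at about 0.0313 to 0.500 kg/ha a.i. Effects were visually rated 0–9 against controls after three to four weeks in the greenhouse.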
# [3] = test system: CHEAL (Lambsquarters, Common); test: Postemergence herbicidal evaluation; format: in vivo, Chenopodium album
# Outline: as §2
# [4] = rate 0.0313 kg/ha, 3-4 weeks after treatment
# [5] = rate 0.0625 kg/ha, 3-4 weeks after treatment
# [6] = rate 0.1250 kg/ha, 3-4 weeks after treatment
# [7] = rate 0.2500 kg/ha, 3-4 weeks after treatment
SMILES,Preemergence herbicidal rating GALAP (GALAP (Galium); rate 0.0156 kg/ha),Preemergence herbicidal rating GALAP (GALAP (Galium); rate 0.0313 kg/ha),Preemergence herbicidal rating GALAP (GALAP (Galium); rate 0.0625 kg/ha),Preemergence herbicidal rating GALAP (GALAP (Galium); rate 0.1250 kg/ha),Preemergence herbicidal rating GALAP (GALAP (Galium); rate 0.2500 kg/ha),Postemergence herbicidal rating IPOHE ([1]; Rate 0.0156 kg/ha),Postemergence herbicidal rating IPOHE ([1]; Rate 0.0313 kg/ha),Postemergence herbicidal rating IPOHE ([1]; Rate 0.0625 kg/ha),Preemergence herbicidal rating GLXMAW ([2]; rate 0.0313 kg/ha),Preemergence herbicidal rating GLXMAW ([2]; rate 0.0625 kg/ha),Preemergence herbicidal rating GLXMAW ([2]; rate 0.1250 kg/ha),Preemergence herbicidal rating GLXMAW ([2]; rate 0.2500 kg/ha),Preemergence herbicidal rating ECHCG (ECHCG (Barnyardgrass); rate 0.0313 kg/ha),Preemergence herbicidal rating ECHCG (ECHCG (Barnyardgrass); rate 0.0625 kg/ha),Preemergence herbicidal rating ECHCG (ECHCG (Barnyardgrass); rate 0.1250 kg/ha),Preemergence herbicidal rating ECHCG (ECHCG (Barnyardgrass); rate 0.2500 kg/ha),Herbicidal rating MOOVA (MOOVA (Monochoria); [4]),Herbicidal rating MOOVA (MOOVA (Monochoria); [5]),Herbicidal rating MOOVA (MOOVA (Monochoria); [6]),Herbicidal rating MOOVA (MOOVA (Monochoria); [7]),other results
"C=CCN1C(=O)C(CC(=O)Nc2ccccc2)SC1=Nc1cc(-n2c(=O)cc(C(F)(F)F)n(C)c2=O)c(F)cc1Cl (stereo not shown) [Compound 44, 3-Allyl-2-{{2-chloro-5-[3,6-dihydro-3-methyl-2,6-dioxo-4-(trifluoromethyl)-1(2H)-pyrimidinyl]-4-fluorophenyl}imino}-4-oxo-5-thiazolidineacetanilide]",1.0,1.0,1.0,9.0,9.0,9.0,9.0,9.0,0.0,0.0,0.0,0.0,0.0,0.0,0.0,0.0,4.0,4.0,7.0,9.0,Preemergence herbicidal rating GALAP (GALAP (Galium); rate 0.5000 kg/ha): 9.0; Postemergence herbicidal rating IPOHE ([1]; Rate 0.1250 kg/ha): 9.0; Preemergence herbicidal rating GLXMAW ([2]; rate 0.0156 kg/ha): 0.0; Preemergence herbicidal rating GLXMAW ([2]; rate 0.5000 kg/ha): 0.0; Preemergence herbicidal rating ECHCG (ECHCG (Barnyardgrass); rate 0.0156 kg/ha): 0.0; Preemergence herbicidal rating ECHCG (ECHCG (Barnyardgrass); rate 0.5000 kg/ha): 0.0; Postemergence herbicidal rating CHEAL ([3]; Rate 0.0156 kg/ha): 1.0; Postemergence herbicidal rating CHEAL ([3]; Rate 0.0313 kg/ha): 4.0; Postemergence herbicidal rating CHEAL ([3]; Rate 0.0625 kg/ha): 5.0; Postemergence herbicidal rating CHEAL ([3]; Rate 0.1250 kg/ha): 9.0
"CCOC(=O)CN1C(=O)CSC1=Nc1cc(N2C(=O)C3=C(CCCC3)C2=O)c(F)cc1Cl [Compound 47, Ethyl 2-{[2-chloro-5-(1-cyclohexene-1,2-dicarboximido)-4-fluorophenyl]imino}-4-oxo-3-thiazolidineacetate]",0.0,0.0,0.0,0.0,9.0,9.0,9.0,9.0,0.0,0.0,0.0,0.0,0.0,0.0,0.0,0.0,5.0,6.0,9.0,9.0,Preemergence herbicidal rating GLXMAW ([2]; rate 0.0156 kg/ha): 0.0; Preemergence herbicidal rating ECHCG (ECHCG (Barnyardgrass); rate 0.0156 kg/ha): 0.0; Postemergence herbicidal rating CHEAL ([3]; Rate 0.0156 kg/ha): 3.0; Postemergence herbicidal rating CHEAL ([3]; Rate 0.0313 kg/ha): 4.0
"CCOC(=O)CN1C(=O)C(Cc2ccccc2OC(C)C(=O)OC)SC1=Nc1cc(-n2c(=O)cc(C(F)(F)F)n(C)c2=O)c(F)cc1Cl (stereo not shown) [Compound 50, 2-{{2-Chloro-5-[3,6-dihydro-3-methyl-2,6-dioxo-4-(trifluoromethyl)-1(2H)-pyrimidinyl]-4-fluoro-phenyl}imino}-5-(o-hydroxybenzyl)-4-oxo-3-thiazolidineacetic acid, ethyl ester, ester with methyl lactate]",,,0.0,0.0,0.0,9.0,9.0,9.0,,0.0,0.0,0.0,,0.0,0.0,0.0,0.0,0.0,3.0,7.0,Postemergence herbicidal rating CHEAL ([3]; Rate 0.0156 kg/ha): 0.0; Postemergence herbicidal rating CHEAL ([3]; Rate 0.0313 kg/ha): 3.0; Postemergence herbicidal rating CHEAL ([3]; Rate 0.0625 kg/ha): 5.0
"Cn1c(C(F)(F)F)cc(=O)n(-c2cc(N=C3SCC(=O)N3[C@@H](Cc3ccccc3)C(=O)O)c(Cl)cc2F)c1=O [Compound 53, α-Benzyl-2-{{2-chloro-5-[3,6-dihydro-3-methyl-2,6-dioxo-4-(trifluoromethyl)-1(2H)-pyrimidinyl]-4-fluorophenyl}imino}-4-oxo-3-thiazolidineacetic acid, L-]",,0.0,0.0,0.0,7.0,,,,0.0,0.0,2.0,4.0,1.0,4.0,7.0,9.0,2.0,2.0,9.0,9.0,Postemergence herbicidal rating IPOHE ([1]; Rate 0.0158 kg/ha): 9.0; Postemergence herbicidal rating IPOHE ([1]; Rate 0.0315 kg/ha): 9.0; Postemergence herbicidal rating IPOHE ([1]; Rate 0.0630 kg/ha): 9.0; Postemergence herbicidal rating CHEAL ([3]; Rate 0.0158 kg/ha): 7.0; Postemergence herbicidal rating CHEAL ([3]; Rate 0.0315 kg/ha): 9.0; Postemergence herbicidal rating CHEAL ([3]; Rate 0.0630 kg/ha): 9.0
"C#CCOC(=O)CC1SC(=Nc2cc(-n3c(=O)cc(C(F)(F)F)n(C)c3=O)c(F)cc2Cl)N(CC(=O)OCC)C1=O (stereo not shown) [Compound 59, 2-{{2-Chloro-5-[3,6-dihydro-3-methyl-2,6-dioxo-4-(trifluoromethyl)-1(2H)-pyrimidinyl]-4-fluorophenyl}imino}-4-oxo-3,5-thiazolidinediacetic acid, 3-ethyl (2-propynyl) ester]",0.0,0.0,6.0,7.0,9.0,,,,0.5,1.0,4.0,7.0,0.0,0.5,2.0,6.0,,,0.0,9.0,"Postemergence herbicidal rating IPOHE ([1]; Rate 0.0158 kg/ha): 9.0; Postemergence herbicidal rating IPOHE ([1]; Rate 0.0315 kg/ha): 9.0; Postemergence herbicidal rating IPOHE ([1]; Rate 0.0630 kg/ha): 9.0; Preemergence herbicidal rating GLXMAW ([2]; rate 0.0156 kg/ha): 1.0; Preemergence herbicidal rating GLXMAW ([2]; rate 0.5000 kg/ha): 9.0; Preemergence herbicidal rating ECHCG (ECHCG (Barnyardgrass); rate 0.0156 kg/ha): 0.0; Preemergence herbicidal rating ECHCG (ECHCG (Barnyardgrass); rate 0.5000 kg/ha): 9.0; Herbicidal rating MOOVA (MOOVA (Monochoria); Rate 0.0625 kg/ha, rated 3 to 4 weeks after treatment): 0.0; Postemergence herbicidal rating CHEAL ([3]; Rate 0.0158 kg/ha): 9.0; Postemergence herbicidal rating CHEAL ([3]; Rate 0.0315 kg/ha): 9.0; Postemergence herbicidal rating CHEAL ([3]; Rate 0.0630 kg/ha): 9.0"
